Test results as given in US8735622B2, “Histone demethylase inhibitors and methods for using the same” (The Regents of the University of Colorado, a body corporate, priority 2011, dated 2014).
“Also recorded” adds a separate entry of the source. Like-named read-outs stand apart in the source and are kept apart here.

How the values were obtained:
[1] = test system: histone methylation marks in MCF7 cells; assay: Western blotting of histone methylation marks in MCF7 cells; format: cell-based, human; details: MCF7 cells, 5, 10, 15 μM, 48 hours
[2] = test system: HDACs; assay: Histone deacetylases (HDACs) enzyme inhibition assay (Fluor de Lys); format: biochemical; details: in vitro
Description: The enzyme activity assay for HDAC was carried out using Fluor de Lys Fluorescent Assay System (BML-AK500, Enzo Life Sciences Inc, NY USA). The assay was performed as the manufactory guide in white 384-well plates. Time resolved fluorescence was measured on a Beckman Coulter DTX 880 plate reader with 250 ms delay, excitation at 360 nm, and emission at 530 nm.

[3] = test system: prolyl hydroxylases (PHDs); assay: Cellular HIF-1α level (prolyl hydroxylase specificity) in MCF7 cells; format: cell-based, human; details: 24 hours, methylstat up to 15 μM, DFO 150 μM, DMOG 1 and 2 mM
Source text: To assess the specificity of methylstat in vivo, another iron(II)- and α-ketoglutarate-dependent dioxygenases, prolyl hydroxylases (PHDs), was examined. PHDs have been reported to regulate normoxic inactivation of hypoxia-inducible factors (HIFs) by hydroxylating specific prolyl residues of HIFs. […] DMOG and DFO have been used to mimic hypoxia conditions by inhibiting PHDs in vivo. […] Similar results were also observed in HeLa cells (see FIG. 7).
Total lysates of cells were generated from the cells lysed in CelLytic M Cell Lysis (Sigma) with protease inhibitor cocktail (Sigma), mixed with 2×LSB buffer (100 mM Tris-HCl pH 6.8, 200 mM DTT, 4% SDS, 20% glycerol and 0.2% bromophenol blue) and boiled for 5 min before SDS-PAGE. BCA assay (Thermo) was applied for protein qualification.

[4] = test system: KYSE150 cells; assay: Cell viability / growth inhibition assay (CellTiter-Glo); format: cell-based, human; details: 48 hours
Source text: To examine the cellular activity of the compounds of the invention, oesophageal carcinoma cell line KYSE150 was used in a growth inhibition assay because KYSE150 cells have been reported to contain several copies of the GASC1 gene, and it has been reported that inhibition of GASC1 expression using short hairpin RNA causes a significant reduction of proliferation in KYSE150 cells. […] Without being bound by any theory, it is believed that this low activity in cells was possibly due to the poor cellular uptake of the zwitterion form in which it typically exists under physiological conditions. Therefore, its methyl ester prodrug 2 (FIG. 1a), called methylstat was tested.
To screen and validate the cellular toxicity of compounds, a cell viability assay was carried out using CellTiter-Glo luminescent cell viability assay kit (Promega, Madison USA). KYSE150 cells were seeded on blank-walled 384-well plates with KYSE medium at densities of 1,000 cells/well. The medium volume for each well was 40 μL. Cells were incubated at 37° C. in 5% CO2/95% air for 24 hours. The medium was removed from each well and replaced with 38 μL, of warmed fresh medium and 2 μL, compound solution in 2% DMSO/98% H2O. The compounds were added into medium at different concentrations with the final concentration of DMSO as 0.1%. After incubation at 37° C. with 5% CO2/95% air for another 48 hours, the plates were equilibrated to room temperature for 30 minutes. 40 μL, of CellTiter-Glo reagent (Promega, Madison USA) was added to each well and mixed for 2 minutes on an orbital shaker. The plate was incubated at room temperature for another 10 minutes to stabilize luminescent signal. The luminescence of each sample was measured in a plate-reading illuminometer (Beckman Coulter DTX 880) with parameters of 1-minute lag time and 0.1 second/well read time. The experiments were performed in triplicate and repeated on two separately initiated cultures.

[5] = test system: H3K4me3 and H3K9me3 levels in MCF7 cells; assay: Quantitative immunostaining assay of H3K4me3 and H3K9me3 in MCF7 cells; format: cell-based, human; details: for EC50: Homo sapiens, 48 hours, immunostaining image quantification
Description: (§1) To quantify the cellular activity of methylstat, a quantitative image-based assay was used. […] The cellular effects of methylstat were also cell type-specific.
(§2) For quantified immunostaining experiments, KYSE150 or MCF7 cells were seeded in a 96-well plate at 10,000 cells per well and incubated at 37° C. for 24 hours. The medium was replaced and methylstat in DMSO was added at the concentration as indicated. After incubation for another 48 hours, immunostaining procedure was performed as described above using anti-H3K9me3 or anti-H3K4me3 primary antibody. Fluorescent images of cells were acquired by a Nikon Eclipse 90i fluorescence microscope and analyzed using the Cell Scoring analysis module of MetaMorph 7.0 software.

[6] = test system: H3K4me3 and H3K9me3 levels in KYSE150 cells; assay: Quantitative immunostaining assay of H3K4me3 and H3K9me3 in KYSE150 cells; format: cell-based, human; details: for EC50: Homo sapiens, KYSE-150, 48 hours, immunostaining image quantification
Description: as §1, §2

inhibition of histone deacetylases (HDACs) [2]: did not significantly inhibit | EC50 ([5]; read-out: EC50 for H3K4me3): 6.7 µM | EC50 ([5]; read-out: EC50 for H3K9me3): 6.3 µM | EC50 ([6]; read-out: EC50 for H3K4me3): 10.3 µM | EC50 ([6]; read-out: EC50 for H3K9me3): 8.6 µM
SMILES: COC(=O)/C=C/C(=O)N(O)CCCCNCc1ccc(COC(=O)Nc2cccc3ccccc23)cc1 [methylstat]
hypermethylation of histone proteins (Western blot) [1]: induced concentration-dependent hypermethylation of lysine and arginine residues; also recorded: induced hypermethylations of histone proteins in a concentration-dependent manner | cellular HIF-1α levels / prolyl hydroxylase inhibition [3]: did not affect the cellular HIF-1α levels; also recorded: did not significantly inhibit prolyl hydroxylases | KYSE150 cell growth inhibition ([4]; compound 1 at up to 100 μM): inhibits KYSE150 cell growth | GI50 ([4]; Homo sapiens, KYSE-150, KYSE150 cells, read-out: half maximal growth inhibitory concentration (GI50)): ~5.1 µM | increase of the H3K9me3 mark [5]: 4.5 fold | increase of the H3K9me3 mark [6]: 10.8 fold
